Source: US20260144780A1, “COMPOSITION FOR ENHANCING ADRENOMEDULLIN GENE EXPRESSION” (HOUSE WELLNESS FOODS CORPORATION, priority 2020, published 2026)

Legend:
[1] = system: intestinal epithelial cells; details: Non Patent Literature 1, cited from earlier work
human TRPA1 = biological target: T1, human TRPA1 (Homo sapiens, UniProt O75762); assay: TRP channel agonist activity, intracellular Ca2+ imaging, hTRPA1 stably expressing cell line; type: cell-based; details: oxylipin compounds 200 μM and 500 μM, AITC 30 μM, Evaluation 5, FIG. 21
T1 construct: expressed in transfected cells
Source text: DNA fragments containing nucleotide sequences encoding amino acid sequences of human TRPA1 (Accession No. NM_007332.3) (hereinafter referred to also as hTRPA1), human TRPV1 (Accession No. NM_080704.4) (hereinafter referred to also as hTRPV1) and human TRPM8 (Accession No. NM_024080.5) (hereinafter referred to also as hTRPM8) were inserted into pcDNA5/TO vectors (Invitrogen) to construct an hTRPA1 expression vector, an hTRPV1 expression vector and an hTRPM8 expression vector, respectively.
T-REx™_293 cells (Invitrogen) were cultured in Dulbecco's modified Eagle medium (DMEM, Nacalai Tesque Inc.) containing 10% fetal bovine serum (FBS, Cytiva) up to 60 to 70% confluent growth in the wells of a 6 well plate. T-REx™-293 cells were transfected with an hTRPA1 expression vector, an hTRPV1 expression vector or an hTRPM8 expression vector by use of Lipofectamine LTX (Invitrogen) in accordance with a manual.
To Dulbecco's modified Eagle medium (DMEM, Nacalai Tesque Inc.) containing 10% fetal bovine serum (FBS, Cytiva), hygromycin B and blasticidin S were added so as to have a concentration of […] and 5 μg/ml, respectively. In this manner, a drug selection medium was prepared. Twenty-four hours after completion of transfection, the medium of the above cells was exchanged with the drug selection medium, and thereafter, the cells were cultured for 7 days while exchanging the medium with a fresh medium every two days. Living cells were subcultured and regarded as hTRPA1 stably expressing cell line, hTRPV1 stably expressing cell line and hTRPM8 stably expressing cell line, respectively.
The day before assay, cells of the individual expressing cell lines were removed from the medium with a trypsin/EDTA solution and seeded in the wells of a 96-well black-well plate with a clear bottom so as to obtain a cell density of 5×10^4 cells to 6×10^4 cells/well. At this time, tetracycline was added to the medium so as to obtain a concentration of 1 μg/ml to induce expression of hTRPA1, hTRPV1 or hTRPM8. Culture was carried out in an incubator at 37° C. for 24 hours to 48 hours and then cells were washed with PBS. After PBS was removed from the wells, 50 μl of a calcium fluorescent indicator, Calbryte 520 AM (AAT, Bioquest), which was prepared by dissolving CaCl2 dihydrate, HEPES, BSA in an assay buffer HBSS (−) (solution prepared by adding so as to obtain a final concentration of 1 mM, 20 mM and 0.1%, respectively), so as to obtain a concentration of 4 μM, was added, to the wells and incubated at 33° C. for 45 minutes. Thereafter, the cells were again washed with the assay buffer and then 100 μl was allowed to remain in the wells to prepare cells for assay. A solution of a test substance for evaluating TRP channel agonist activity and having a concentration twice as large as the concentration for measurement was prepared within the wells of the 96-well plate and used within 30 minutes after preparation. The cells to be subjected to assay were incubated at 31° C. and a test substance solution (100 μl) was added to the cells for assay by use of Flaxstation3 (Molecular Devices) and fluorescence intensity (excitation wavelength: 490 nm, fluorescence wavelength: 525 nm) was measured every 2 seconds up to 120 seconds. Thirty seconds after initiation of measurement, the (test substance) solution was added to the cells for assay such that a final concentration of the test substance becomes a concentration for measurement.
TRP channel activation ability of a test substance was calculated as a relative value based on the activation ability of 10 μM ionomycin to each of TRP channels, in accordance with the following calculation formula. […]

[2] = Solubility of isolated oxylipin compounds (physicochemical properties); details: solvents listed for the isolated compound
[3] = in the presence of 1 μM A-967079 (TRPA1 antagonist)

T1 sequence (O75762 whole entry): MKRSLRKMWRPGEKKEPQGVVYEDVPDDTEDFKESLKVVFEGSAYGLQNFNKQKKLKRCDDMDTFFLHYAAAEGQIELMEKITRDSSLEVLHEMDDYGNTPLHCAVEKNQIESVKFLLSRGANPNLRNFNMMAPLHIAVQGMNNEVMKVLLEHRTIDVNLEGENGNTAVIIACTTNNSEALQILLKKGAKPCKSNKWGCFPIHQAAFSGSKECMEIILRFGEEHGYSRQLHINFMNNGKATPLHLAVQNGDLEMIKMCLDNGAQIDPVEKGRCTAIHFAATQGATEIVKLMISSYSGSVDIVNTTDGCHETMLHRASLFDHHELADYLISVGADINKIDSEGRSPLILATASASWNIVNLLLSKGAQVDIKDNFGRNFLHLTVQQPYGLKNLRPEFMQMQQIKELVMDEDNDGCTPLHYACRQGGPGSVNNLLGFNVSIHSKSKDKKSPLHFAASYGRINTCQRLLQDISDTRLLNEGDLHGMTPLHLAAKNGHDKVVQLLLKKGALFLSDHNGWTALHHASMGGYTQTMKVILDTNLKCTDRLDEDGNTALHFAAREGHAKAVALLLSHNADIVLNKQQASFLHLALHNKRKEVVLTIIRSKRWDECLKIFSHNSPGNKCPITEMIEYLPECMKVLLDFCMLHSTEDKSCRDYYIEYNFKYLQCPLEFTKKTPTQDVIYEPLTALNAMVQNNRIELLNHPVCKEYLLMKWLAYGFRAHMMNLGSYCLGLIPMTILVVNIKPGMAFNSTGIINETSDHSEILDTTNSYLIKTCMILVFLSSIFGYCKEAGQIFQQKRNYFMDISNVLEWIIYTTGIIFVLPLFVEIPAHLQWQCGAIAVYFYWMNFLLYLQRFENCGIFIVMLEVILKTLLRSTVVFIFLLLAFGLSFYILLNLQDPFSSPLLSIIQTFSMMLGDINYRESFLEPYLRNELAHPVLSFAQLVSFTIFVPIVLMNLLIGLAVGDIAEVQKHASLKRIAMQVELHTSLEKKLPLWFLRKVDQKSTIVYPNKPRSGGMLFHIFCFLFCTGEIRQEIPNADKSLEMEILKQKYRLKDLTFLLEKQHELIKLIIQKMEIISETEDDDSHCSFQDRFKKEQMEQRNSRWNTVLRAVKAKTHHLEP

Compound | action to promote release of adrenomedullin from the intestinal epithelial cells, with a TRPA1 antagonist ([1]; TRPA1 antagonist added) | release of adrenomedullin from the intestinal epithelial cells [1] | TRPA1 activation ability (human TRPA1; in the absence of A-967079) | TRPA1 activation ability (human TRPA1; [3]) | Solubility [2]
CCCCC/C=C/C(=O)CCc1ccc(O)c(OC)c1 [Compound 6-shogaol, 6-shogaol] | inhibited by a TRPA1 antagonist | have an action to promote release of adrenomedullin from the intestinal epithelial cells | – | – | –
CC/C=C/CC(O)/C=C/C=C\CCCCCCCC(=O)O (stereo not shown) [Compound R1-2, (9Z,11E,15E)-13-hydroxy-9,11,15-octadecatrienoic acid] | – | – | showed TRPA1 activation ability in the absence of A-967079 in a concentration dependent manner | did not show TRPA1 activation ability | ethanol, methanol, acetonitrile, chloroform
CCC(O)/C=C/C=C\C/C=C\CCCCCCCC(=O)O (stereo not shown) [Compound R2-2, (9Z,12Z,14E)-16-hydroxy-9,12,14-octadecatrienoic acid] | – | – | showed TRPA1 activation ability in the absence of A-967079 in a concentration dependent manner | did not show TRPA1 activation ability | ethanol, methanol, acetonitrile, ethyl acetate, chloroform
CC/C=C\C/C=C\C=C\C(O)CCCCCCCC(=O)O (stereo not shown) [Compound R3, (10E,12Z,15Z)-9-hydroxy-10,12,15-octadecatrienoic acid] | – | – | showed TRPA1 activation ability in the absence of A-967079 in a concentration dependent manner | did not show TRPA1 activation ability | ethanol, methanol, acetonitrile, ethyl acetate, chloroform
(7Z,13E,15Z)-12-hydroxy-7,13,15-octadecatrienoic acid and (9Z,13E,15Z)-12-hydroxy-9,13,15-octadecatrienoic acid [Compound R2-1] | – | – | showed TRPA1 activation ability in the absence of A-967079 in a concentration dependent manner | did not show TRPA1 activation ability | –
